How the values were obtained:
Type in all cases: biochemical
Aβ42 oligomers [1] = target: T1, Aβ42 oligomers (Homo sapiens, UniProt P05067); experiment: Aβ42 NT immunoassay (6E10-6E10); settings: P<0.01
T1 construct: Synthetic human Aβ1-42, purchased from American Peptide Company (Sunnyvale, Calif.); purchased American Peptide Company (Sunnyvale, Calif.); host or cells: chemically synthesised peptide
Description: The effect of an Aβ oligomer inhibitor on the metastability of Aβ42 oligomers prepared according Example 1 was evaluated as follows. A sample of the 1 mM Aβ42 DMSO stock was diluted to 10 μM or 100 μM in PBS or Neurobasal (e.g., 10 μl of 1 mM Aβ42 DMSO stock to make 1 ml 10 μM solution or 100 μl A(342 DMSO stock to make 1 ml 100 μM solution). After incubation at 37° C., the diluted oligomer solutions were mixed with scyllo-inositol (SI), a naturally occurring plant sugar alcohol found most abundantly in the coconut palm, to make a final concentrations of 1 μM or 10 μM Aβ42 containing 10 mM SI. The non-compound control oligomer sample contained no SI. The mixtures were incubated on ice for two to three hours to allow establishment of new equilibrium (metastability) among Aβ42 species. The stabilized mixtures were then utilized in the immunoreactive assays. An Aβ42 N-terminal (NT) oligomer ELISA was performed by adopting a 6E10-6E10 ELISA originally developed in house at Merck and also reported by others (Gandy et al., 2010, Ann. Neurol. 68: 220-230; Xia et al., 2009, Arch. Neurol. 66:190-199). […] The immunoreactive signals were read with a multilabel plate reader (EnVision®, PerkinElmer, Waltham, Mass.). The presence of Aβ42 oligomers was determined by a corresponding increase in the NT immunosignal. Values for the ELISA assays were graphed and analyzed with Prism GraphPad software. […]

Aβ42 oligomers [2] = target: T1, Aβ42 oligomers; experiment: Aβ42 CT immunoassay, metastability of pre-formed Aβ42 oligomers; settings: addition to pre-formed Aβ42 oligomers, P<0.01 relative to samples without SI
Description: The effect of an Aβ oligomer inhibitor on the metastability of Aβ42 oligomers prepared according Example 1 was evaluated as follows. […] Similarly, the presence of Aβ42 oligomers was detected using an Aβ42 C-terminal (CT) AlphaLISA assay (Eglen et al., 2008, Curr. Chem. Genomics, 1:2-10), a bead based proximity assay, based upon an oxygen channeling technology. […] The immunoreactive signals were read with a multilabel plate reader (EnVision®, PerkinElmer, Waltham, Mass.). The presence of Aβ42 oligomers was determined by a corresponding decrease in the C-terminal immunosignal. Values for the AlphaLISA assays were graphed and analyzed with Prism GraphPad software. […] Values for the ELISA assays were graphed and analyzed with Prism GraphPad software.

Aβ42 [3] = target: T2, Aβ42 (Homo sapiens, UniProt P05067); experiment: Aβ42 CT AlphaLISA, inhibition of early oligomerization; settings: for Aβ42 CT immunoreactivity: Aβ42 1 nM, oligomerization at 4° C. overnight, different buffers, AlphaLISA
T2 construct: Synthetic human Aβ1-42, purchased from American Peptide Company (Sunnyvale, Calif.); purchased American Peptide Company (Sunnyvale, Calif.); host or cells: chemically synthesised peptide
Description: To test a compound's effect on inhibition of early oligomerization, SI, or a different testing compound, was mixed with the Aβ42 solution to make solutions with final concentrations of SI from 0.1 μM to 10 mM (0.1 μM, 1 μM, 10 μM, 100 μM, 1 mM, and 10 mM) and Aβ42 from 1 nM to 10 μM (1 nM, 10 nM, 100 nM, 1 μM and 10 μM). For example, a 10 μM Aβ42 solution contained, respectively, 0 μM, 0.1 μM, 1 μM, 10 μM, 100 μM, 1 mM and 10 mM SI. The same SI concentration series was applied to other concentrations of the Aβ42 solution indicated above. The mixtures were either incubated at 4° C. overnight or room temperature for two to three hours, before being used in the immunoreactive assay. Similarly, the presence of Aβ42 oligomers was detected using an Aβ42 C-terminal (CT) AlphaLISA assay (Eglen et al., 2008, Curr. Chem. Genomics, 1:2-10), a bead based proximity assay, based upon an oxygen channeling technology. The assay was carried out in a 384 well plate using an AlphaLISA® Human Amyloid β 1-[…]42 Research Immunoassay Kit (PerkinElmer, Waltham, Mass.) according to the manufacturer's directions. To make a 2.5× AlphaLISA acceptor bead and biotinylated anti-Aβ42 antibody mixture, 5.5 μl acceptor beads conjugated to anti-Aβ42 (12F4) and 5.5 μl biotin-Aβ42 antibody (binds to a epitope away from the CT of Aβ42) were added to 1,089 μl 1S AlphaLISA buffer and mixed by brief vortexing. To each well of a 384-well plate, 8 μl of the mix and 2 μl of an Aβ42 sample were added, followed by gentle tapping of the plate to mix the solutions. The plate was incubated at room temperature for one hour. The streptavidin donor bead solution was made in a dark room under safety light by mixing 20.1 μl of streptavidin donor beads with 1,279 μl 1× AlphaLISA buffer. The streptavidin donor bead solution, which binds to the biotinylated anti-Aβ42 antibody, was then added (10 μl/well) to the plate, sealed with an adhesive aluminum membrane, and incubated at room temperature for 30 minutes. Incubation brought the donor and acceptor beads into close proximity. An immunoreactive signal was generated when the donor bead released a singlet oxygen that, when excited at 680nm, was transferred to the acceptor bead, resulting in a light emission at 610 nm. The immunoreactive signals were read with a multilabel plate reader (EnVision®, PerkinElmer, Waltham, Mass.). The presence of Aβ42 oligomers was determined by a corresponding decrease in the C-terminal immunosignal. Values for the AlphaLISA assays were graphed and analyzed with Prism GraphPad software. Similar to signals generated with ELISA, the extent of Aβ42 oligomerization is inversely correlated with the magnitude of the CT immunosignal in AlphaLISA. Values for the ELISA assays were graphed and analyzed with Prism GraphPad software.

Aβ42 [4] = target: T2, Aβ42; experiment: Dynamic light scattering of Aβ42 oligomerization; settings: Aβ42 40 μM, 25 °C, in the presence of SI
Description: Dynamic light scattering (DLS), also known as also known as quasi-elastic laser light scattering, offered another methodology to determine Aβ42 oligomerization by measuring the size distribution profile and shape of particles in solution. […] Sample preparation for the DLS assay was performed in a bio-safety cabinet. All solutions and reagents were pre-filtered with a 0.1 μm Whatman filter (Whatman, Piscataway, N.J.). Aβ42 (100 μM) made in PBS from the 1 mM DMSO stock (Example 1) was filtered with a 0.2 μm filter (Whatman, Piscataway, N.J.) and diluted to 50 μM to 10 μM with PBS or water. The samples were added to the DLS plate (50 μl/well) in the presence or absence of compounds and incubated at room temperature for seven to eight hours. The plate was briefly centrifuged (1 minute at 3000 rpm) and placed in the DynaPro DLS plate reader (Wyatt Technology, Dernbach, Germany), in which different parameters (normalized intensity, hydrodynamic radius, molecular weight, relative molecular mass, percent polydispersity, and sum of square) of the Aβ42 oligomer samples were measured, and analyzed with Dynamics 7.0.0 software (Wyatt Technology, Dernbach, Germany).

T1 sequence (P05067 672-713 limits assumed): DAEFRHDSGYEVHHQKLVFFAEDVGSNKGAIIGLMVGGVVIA
T2 sequence (P05067 672-713 limits assumed): as above

Molecule: O[C@H]1[C@H](O)[C@@H](O)[C@H](O)[C@@H](O)[C@@H]1O [SI, scyllo-inositol]
- NT immunoreactivity (Aβ42 oligomers [1]; addition to pre-formed Aβ42 oligomers): significant decrease
- CT immunoreactivity (Aβ42 oligomers [2]): statistically significant increase
- Aβ42 CT immunoreactivity (Aβ42 [3]): dose dependent increase
- % Intensity, Peak 1 (Aβ42 [4]): 0.7%
- % Intensity, Peak 2 (Aβ42 [4]): 96.88%
- % Mass, Peak 1 (Aβ42 [4]): 76%
- % Mass, Peak 2 (Aβ42 [4]): 38%
- MW-R, Peak 1 (Aβ42 [4]): 11.6 kDa
- MW-R, Peak 2 (Aβ42 [4]): 527.1 kDa
- Radius, Peak 1 (Aβ42 [4]): 2.5 nm
- Radius, Peak 2 (Aβ42 [4]): remained unchanged
- % Mass, Peak 1 (Aβ42 [4]; listed as Ab42/SI): 72.93%
- % Mass, Peak 2 (Aβ42 [4]; listed as Ab42/SI): 38.75%
- Radius, Peak 2 (Aβ42 [4]; listed as Ab42/SI): 21.4 nm

Molecule: O[C@H]1[C@H](O)[C@@H](O)[C@H](O)[C@@H](O)[C@H]1O [myo-inositol]
- Aβ42 CT immunoreactivity (Aβ42 [3]): no effect

Molecule: OC1C(O)C(O)C(O)C(O)C1O (stereo not drawn) [chiro-inositol]
- Aβ42 CT immunoreactivity (Aβ42 [3]): no effect

Molecule: Ac-Leu-Pro(N-CH3)Phe-Phe-Asp-NH2 [Peptide IV]
- NT immunosignal (Aβ42 oligomers [1]; FIG. 7B): significant decrease
- CT immunoreactivity (Aβ42 [3]; FIG. 7A): dose-depended increase
